Measurements published in patent US20170173070A1, “METHODS OF ADMINISTERING LMWH” (MOMENTA PHARMACEUTICALS, INC., priority 2014, published 2017).
“Also recorded” adds a separate entry of the source.

Legend:
[1] = test system: pancreatic ductal adenocarcinoma (PDA); details: cited from earlier work
[2] = test system: Wnt/β-catenin signaling pathway; assay: Expression of members of the Wnt/β-catenin signaling pathway; assay type: in vivo; details: gemcitabine monotherapy
Description: FIGS. 6A and 6B depict the effect of gemcitabine treatment on the Wnt/β-catenin signaling pathway.
FIGS. 7A and 7B depict the effect of pretreatment with M402 followed by subsequent gemcitabine/M402 combination treatment on the Wnt/β-catenin signaling pathway.
(§1) Tumor cells having increased Wnt/β-catenin signaling are known to be invasive. […] This observation supports that gemcitabine monotherapy results in an invasive tumor phenotype. To confirm that gemcitabine monotherapy results in an invasive tumor phenotype, a cohort of KPFMC mice were exposed to gemcitabine monotherapy (100 mg/kg), starting at day 45 after birth. The tumors were subsequently harvested at the clinical humane endpoint. […] This observation supports that gemcitabine monotherapy results in an invasive tumor phenotype.
This observation supports that M402 inhibits the gemcitabine induced invasive tumor phenotype.

RTK phosphorylation = assay: Phospho-RTK array analysis of KPFMC pancreatic tumors; assay type: in vivo, mice; details: gemcitabine treated KPFMC tumors
Description: (§2) FIG. 3A depicts H&E sections of pancreatic tumors from KPFMC mice at clinical endpoint. The tumors were analyzed microscopically to identify intestinal invasion (upper panel). […] Expression values are depicted in the heat map. FIG. 3D is a bar graph showing the influence of gemcitabine treatment on the invasive behavior of tumor cells. The cells were analyzed by quantification of double positive E-cadherin and Fsp1 cells in tumor sections of mice treated with saline and gemcitabine until clinical endpoint.
(§3) Expression values are depicted in the heat map. Mice were treated from day 30 after birth until day 51. […] FIG. 4C is an immunofluorescence image of a section from a saline treated KPFMC mouse pancreas co-stained with E-cadherin and Fsp1 showing high magnification view of cells that co-express both the epithelial and mesenchymal marker (left panel).
Expression values are depicted in the heat map. Color intensities indicate the fold change with M402+gemcitabine combination therapy over M402. […] Tumor sections derived from mice treated with saline and gemcitabine until clinical endpoint were analyzed by quantification of cells positive for E-cadherin and Fsp1 in tumor. FIG. 5C is a bar graph showing the quantification of intact Islets of Langerhans (lower panel) from pancreatic tumors after the indicated treatments. […]

[3] = test system: tumor cells undergoing EMT in KPFMC pancreatic tumors; assay: Quantification of tumor cells undergoing EMT (E-cadherin/Fsp1 double positive cells) in KPFMC tumor sections; assay type: in vivo, mice; details: gemcitabine vs saline, treated until clinical endpoint
Description: as §3
Expression values are depicted in the heat map. Color intensities indicate the fold change with M402+gemcitabine combination therapy over M402. FIG. 5B is a bar graph showing the influence of M402 treatment on the invasive behavior of tumor cells induced by gemcitabine. Tumor sections derived from mice treated with saline and gemcitabine until clinical endpoint were analyzed by quantification of cells positive for E-cadherin and Fsp1 in tumor. FIG. 5C is a bar graph showing the quantification of intact Islets of Langerhans (lower panel) from pancreatic tumors after the indicated treatments. (Means±SD are depicted; *P<0.05, NS P>0.05, Student's t test).
Tumor cells having increased Wnt/β-catenin signaling are known to be invasive. […] This observation supports that gemcitabine monotherapy results in an invasive tumor phenotype. To confirm that gemcitabine monotherapy results in an invasive tumor phenotype, a cohort of KPFMC mice were exposed to gemcitabine monotherapy (100 mg/kg), starting at day 45 after birth. […]

[4] = test system: pancreatic tumors of KPFMC mice; assay: Histological examination of KPFMC pancreatic tumors for invasion (intestine, biliary tract); assay type: in vivo
Description: as §2, §1

Nc1ccn([C@@H]2O[C@H](CO)[C@@H](O)C2(F)F)c(=O)n1 [gemcitabine]
overall survival ([1]; adjuvant gemcitabine post surgical removal of a pancreatic tumor): prolong overall survival
survival benefit ([1]; gemcitabine monotherapy in the absence of surgery): failed to show an extensive survival benefit
expression of members of the Wnt/β-catenin signaling pathway [2]: increases expression of several members of the Wnt/β-catenin signaling pathway
RTK phosphorylation in pancreatic tumors (RTK phosphorylation): increased the phosphorylation of several RTKs; also recorded: increase in RTK phosphorylation
tumor cells undergoing EMT (E-cadherin/Fsp1 double positive cells) [3]: increase in tumor cells undergoing EMT
biliary tract obstruction / obstructive jaundice (invasion into the biliary tree) ([4]; gemcitabine monotherapy 100 mg/kg from day 45, clinical endpoint): obstructive jaundice; also recorded: invasion increased
intestinal invasion of pancreatic tumors ([4]; gemcitabine monotherapy 100 mg/kg from day 45 after birth, clinical endpoint, vs saline): increased invasion into the adjacent intestine; also recorded: number of mice with intestinal invasion increased
